The results in this text go back to ChEMBL document CHEMBL5233262, “Anti-inflammatory activity of naturally occuring diarylheptanoids - A review” (Bioorg Med Chem, 2021).

In general, IC50 refers to the concentration needed to halve the response being measured. As usually defined, the inhibition is the percentage by which the read-out fell short of the control.

For test [1], the system named is RAW264.7. The test is described as follows: Antiinflammatory activity in mouse RAW264.7 cells assessed as inhibition of IFN-gamma and LPS-induced NO production incubated for 24 hrs by Griess assay. Format: functional, cell-based. To be noted: RAW264.7, 24 h.
In test [2] the test system is RAW264.7. The test is described as follows: Antiinflammatory activity against mouse RAW264.7 cells assessed as inhibition of IFN-gamma and LPS-induced COX2 production preincubated for 2 hrs followed by IFN-gamma and LPS stimulation and measured after 16 hrs by spectrophotometric analysis. Format: functional, cell-based.
Test [3] deals with RAW264.7. The test is described as follows: Antiinflammatory activity in mouse RAW264.7 cells assessed as inhibition of LPS-induced NO production preincubated for 0.5 hrs followed by LPS stimulation and measured after 24 hrs by Griess reagent based analysis. Format: functional, cell-based.
Test [4] concerns J774.A1. In words: Antiinflammatory activity in mouse J774.A1 cells assessed as inhibition of LPS-induced IL-6 production at 10 microg/ml preincubated for 30 mins followed by LPS stimulation and measured after 2 hrs by Griess reagent based analysis. The settings on record: J774.A1, 2.5 h, time 150 min. Format: functional. (In general: Nitrite, measured by Griess reagent, commonly stands in for NO production.)

In test [5] the test system is J774.A1. In words: Antiinflammatory activity in mouse J774.A1 cells assessed as inhibition of LPS-induced TNF-alpha production at 10 microg/ml preincubated for 30 mins followed by LPS stimulation and measured after 2 hrs by Griess reagent based analysis. Format: functional. To be noted: J774.A1, 2.5 h, time 150 min.
Test [6] in a line: Antioxidant activity assessed as nitroblue tetrazolium superoxide radical scavenging activity incubated for 10 mins by spectrophotometric analysis. Format: functional.
In test [7] the test system is RAW264.7. The test is described as follows: Antiinflammatory activity in mouse RAW264.7 cells assessed as inhibition of LPS-induced NF-kappaB activation incubated for 24 hrs by SEAP microplate reader analysis. Format: functional, cell-based. To be noted: RAW264.7, 24 h.
Test [8] deals with RAW264.7. The test is described as follows: Antiinflammatory activity in mouse RAW264.7 cells assessed as inhibition of LPS-induced NO production incubated for 24 hrs by Griess reagent based analysis. Format: functional, cell-based. The settings on record: RAW264.7, 24 h.
The subject of test [9] is RAW264.7. The test is described as follows: Antiinflammatory activity in mouse RAW264.7 cells assessed as inhibition of LPS-induced NO production preincubated for 1 hrs followed by LPS stimulation and measured after 24 hrs by Griess reagent based analysis. Format: functional, cell-based.
Test [10] in a line: Antioxidant activity assessed as DPPH radical scavenging activity incubated for 30 mins by spectrophotometric analysis. Format: functional. For orientation: DPPH is a stable violet radical that fades when it is reduced.
The test system of test [11] is RAW264.7. In words: Antiinflammatory activity in mouse RAW264.7 cells assessed as inhibition of IFN-gamma and LPS-induced NO production incubated for 20 hrs by Griess assay. Format: functional, cell-based. To be noted: RAW264.7, 20 h.
For test [12], the system named is RAW264.7. The test is described as follows: Antiinflammatory activity in mouse RAW264.7 cells assessed as inhibition of LPS-induced TNFalpha production preincubated for 1 hr followed by LPS stimulation and measured after 18 hrs by immunoassay. Format: functional, cell-based.
Another test deals with MCF-10A. The test is described as follows: Antiinflammatory activity in human MCF-10A cells assessed as inhibition of TPA-induced COX2 production at 12.5 to 100 uM incubated for 4 hrs by Western blot analysis. Format: functional. The settings on record: dose 12.5-100 µM.
For test [13], the system named is RAW264.7. In words: Antiinflammatory activity in mouse RAW264.7 cells assessed as inhibition of LPS-induced NO production incubated for 20 hrs by Griess method. Format: functional, cell-based. The settings on record: RAW264.7, 20 h.
Test [14] can be described thus: Antioxidant activity assessed as DPPH radical scavenging activity incubated for 25 mins by spectrophotometric analysis. Format: functional.

Molecules are shown by their SMILES. Values after ≈ are worked out from the molar mass of the structure shown.

With `O=C(CCc1ccc(O)c(O)c1)C[C@H](CCc1ccc(O)c(O)c1)O[C@@H]1O[C@H](CO)[C@@H](O)[C@H](O)[C@H]1O`, the IC50 amounted to 29.4 µg/mL (≈ 57.8 µM) with RAW264.7 [1], 33.7 µg/mL (≈ 66.3 µM) in the test on RAW264.7 [2] and 10 µM in the test with RAW264.7 [3]. Also, the inhibition at 10 µg/mL is 75% in the test with J774.A1 [4] and 51% with J774.A1 [5].

Consider `O=C(CCc1ccc(O)c(O)c1)C[C@@H](O)CCc1ccc(O)c(O)c1` [HIRSUTANONOL], for which the IC50 in [6] is 19 µM; in the test on RAW264.7 [1], 44.3 µg/mL (≈ 128 µM); with RAW264.7 [2] it was 25.7 µg/mL (≈ 74.2 µM); in the test with RAW264.7 [3] it was 30 µM; with RAW264.7 [7], 9.9 µM; in the test with RAW264.7 [8], 19.3 µM. For the same compound, the IC50 was found to be 21.3 µM in the test on RAW264.7 [9]; 26 µM in test [10]; 3.8 µM in the test with RAW264.7 [11]; 23.7 µM in the test on RAW264.7 [12]; 17.8 µM in the test on RAW264.7 [13]. Moreover, the “inhibition (INH)” value in the test on MCF-10A is on record as 22%.

Consider `O=C(O)c1cc(O)c(O)c(O)c1` [GALLIC ACID], for which, in [14], the IC50 amounted to 10.4 µM.
